From patent US12729218B2, “Glycolipids and use thereof as SK3 ion channel modulators” (priority 2020, dated 2026)

Key:
[1] = biological target: T1, SK3 channels (Homo sapiens, UniProt Q9UGI6); test: Whole-cell patch-clamp of SK3 currents in HEK293T cells expressing SK3 channels; assay type: cell-based; conditions: 10 μM; for time after addition at which the effect on SK3 current was reached / time after application at which the maximum of the activation of SK3 current was reached: currents at 0 mV
T1 construct: expressed in transfected cells
Method: HEK293T were obtained from American Type Culture Collection (ATCC) and cultured in Dulbecco's Modified Eagle's Medium, supplemented with 10% (v:v) fetal bovine serum (Lonza, France), 1 mM pyruvate sodium (Sigma-Aldrich, France), and 1% non-essential amino acid (Sigma-Aldrich, France). Cells were grown in a humidified atmosphere at 37° C. and with 95% air and 5% CO2. HEK293T cells were transduced as previously described to obtain stable expression of homotetramer SK3 channels.
Experiments were performed in the whole-cell configuration of the patch-clamp technique. The patch pipettes were filled with solution contained 145 mM KCl, 1 mM MgCl2, 1 mM Mg-ATP, 0.7 mM CaCl2), 1 mM EGTA and 10 mM HEPES (PCa 6). pH was adjusted to 7.2 with KOH. The bath solution contained 140 mM NaCl, 4 mM KCl, 2 mM CaCl2), 1 mM MgCl2, 10 mM HEPES, 0.33 mM NaH2PO4, and 11.5 mM D-glucose. pH was adjusted to 7.4 with NaOH. Patch-clamp experiments and data analyses were conducted as previously described (Girault, A. et al. Current Cancer Drug Target, 2011, 11, 1111-1125). […] The amplitude of the apamin-sensitive current was obtained by subtraction of the amplitude of the current before and after application of 100 nmol/L apamin (a specific SKCa blocker).
The capacity of the compounds 001-006 (Table 2, FIGS. 1 and 2) to modulate the activity of SK3 currents was measured using the whole cell configuration of the patch-clamp technique. For these acute tests, a concentration of 10 μM for each of the compounds was used.

[2] = tested on: Thoracic aortic segment (smooth muscle cells); test: Relaxation of phenylephrine pre-contracted, endothelium-removed thoracic aortic rings; design: species or system guinea pig; conditions: 10 μM added 2 times, pre-contracted with 10 μM phenylephrine, 5 minutes after additions
From the text: Thoracic aortic segments were isolated from a guinea pig as already indicated by Vandier et al, (Adv Physiol Educ. 2002 December; 26(1-4):195-203). Briefly, thoracic aortic segments were isolated, cleaned of adventitia, and cut into rings. The endothelium was removed and aortic rings, were mounted on stainless steel hooks and suspended in a 30-ml jacketed tissue bath with physiological salt solution (in mm): 120 NaCl, 5.4 KCl, 1 MgCl2, 0.6 NaH2PO4, 25 NaHCO3, 5.6 glucose, 5 Na-pyruvate, and 2 CaCl2, bubbled with 95% 02-5% CO2 maintained at 37° C. and aerated with 95% 02-5% CO2. Solutions to be tested were directly added in the jacketed tissue bath generated allowed one to get the desired concentration around the aortic rings. Isometric force generation was recorded with Grass transducers (FT03; Quincy, MA) connected to an amplifier (gain 500) and analogic to digital converter (1 Hz) connected to a computer.
Thoracic aortic segment was pre-contracted using 10 μM phenylephrine. After the steady state was reached 10 μM of compound 002 was added, two successive times, directly in the bath solution containing a physiological salt solution, maintained at 37° C. and aerated with 95% 02-5% CO2

Substance | time after addition at which the effect on SK3 current was reached [1] | effect on SK3 channel in words [1] | time after application at which the maximum of the activation of SK3 current was reached [1] | relaxation effect on pre-contracted thoracic aortic segment [2] | SK3 current (change after application of compound) ([1]; acute, HEK293T expressing SK3, currents analyzed at 0 mV, pCa 6, mean ± SEM)
Lac(OH)7-O-2-ethoxy-4-S-heneicosane [compound 006] | 30 s | – | – | – | –
Lac(OH)7-O-2-methoxy-3-S-heneicosane [compound 002] | 30 s | strong activator of SK3 channel | 5 min | dose-dependent relaxation | –
Lac(OH)7-O-2-methoxy-3-S-hexadecane [compound 001] | – | abolished the activating effect | – | – | −9.7% ± 5.2
Lac(OH)7-O-2-methoxy-4-S-heneicosane [compound 003] | – | kept its activation capacity | 5 min | – | –
